Test results from ChEMBL document CHEMBL4024706 (Eur J Med Chem, 2017).

Assays:
[1] = target: Serine/threonine-protein kinase TAO2 (Homo sapiens) (UniProt Q9UL54); assay: Inhibition of wild-type human partial length TAOK2 (M1 to A320 residues) expressed in mammalian expression system assessed as residual activity at 1 uM by Kinomescan method relative to control
[2] = target: Cyclin-dependent kinase 5 (Homo sapiens) (UniProt Q00535); assay: Inhibition of wild-type human full length CDK5 (M1 to P292 residues) expressed in bacterial expression system assessed as residual activity at 1 uM by Kinomescan method relative to control
[3] = target: Leucine-rich repeat serine/threonine-protein kinase 2 (Homo sapiens) (UniProt Q5S007); assay: Inhibition of wild-type human partial length LRRK2 (H970 to E2527 residues) expressed in mammalian expression system assessed as residual activity at 1 uM by Kinomescan method relative to control
[4] = target: Serine/threonine-protein kinase 3 (Homo sapiens) (UniProt Q13188); assay: Inhibition of wild-type human partial length MST2 (D17 to E318 residues) expressed in bacterial expression system assessed as residual activity at 1 uM by Kinomescan method relative to control
[5] = target: Ephrin type-B receptor 3 (Homo sapiens) (UniProt P54753); assay: Inhibition of wild-type human partial length EPHB3 (Q599 to T928 residues) expressed in bacterial expression system assessed as residual activity at 1 uM by Kinomescan method relative to control
[6] = target: Cyclin-dependent kinase 3 (Homo sapiens) (UniProt Q00526); assay: Inhibition of wild-type human full length CDK3 (M1 to H305 residues) expressed in bacterial expression system assessed as residual activity at 1 uM by Kinomescan method relative to control
[7] = target: Angiopoietin-1 receptor (Homo sapiens) (UniProt Q02763); assay: Inhibition of wild-type human partial length TIE2 (N804 to T1112 residues) expressed in bacterial expression system assessed as residual activity at 1 uM by Kinomescan method relative to control
[8] = target: TRAF2 and NCK-interacting protein kinase (Homo sapiens) (UniProt Q9UKE5); assay: Inhibition of wild-type human partial length TNIK (D4 to K311 residues) expressed in bacterial expression system assessed as residual activity at 1 uM by Kinomescan method relative to control
[9] = target: Ephrin type-B receptor 2 (Homo sapiens) (UniProt P29323); assay: Inhibition of wild-type human partial length EPHB2 (I597 to L902 residues) expressed in bacterial expression system assessed as residual activity at 1 uM by Kinomescan method relative to control
[10] = target: Receptor-interacting serine/threonine-protein kinase 1 (Homo sapiens) (UniProt Q13546); assay: Inhibition of wild-type human partial length RIPK1 (M1 to K305 residues) expressed in bacterial expression system assessed as residual activity at 1 uM by Kinomescan method relative to control
[11] = target: Receptor-interacting serine/threonine-protein kinase 4 (Homo sapiens) (UniProt P57078); assay: Inhibition of wild-type human partial length RIPK4 (M1 to V303 residues) expressed in mammalian expression system assessed as residual activity at 1 uM by Kinomescan method relative to control
[12] = target: Serine/threonine-protein kinase B-raf (Homo sapiens) (UniProt P15056); assay: Inhibition of wild-type human partial length BRAF (S429 to E741 residues) expressed in mammalian expression system assessed as residual activity at 1 uM by Kinomescan method relative to control
[13] = target: Mitogen-activated protein kinase kinase kinase 9 (Homo sapiens) (UniProt P80192); assay: Inhibition of wild-type human partial length MLK1 (V88 to W426 residues) expressed in bacterial expression system assessed as residual activity at 1 uM by Kinomescan method relative to control
[14] = Tmax in Sprague-Dawley rat at 1 mg/kg, iv by LC-MS/MS method; assay type: ADME, organism-based; settings: in vivo
[15] = system: Proto-oncogene tyrosine-protein kinase receptor Ret (Homo sapiens), P07949 [V804M]; assay: Inhibition of human partial length RET V804M mutant (E713 to D1014 residues) expressed in bacterial expression system assessed as residual activity at 1 uM by Kinomescan method relative to control
[16] = target: Tyrosine-protein kinase Tec (Homo sapiens) (UniProt P42680); assay: Inhibition of wild-type human partial length TEC (L341 to D620 residues) expressed in bacterial expression system assessed as residual activity at 1 uM by Kinomescan method relative to control
[17] = target: Mitogen-activated protein kinase 13 (Homo sapiens) (UniProt O15264); assay: Inhibition of wild-type human full length p38-delta (M1 to L365 residues) expressed in bacterial expression system assessed as residual activity at 1 uM by Kinomescan method relative to control
[18] = target: Tyrosine-protein kinase BTK (Homo sapiens, UniProt Q06187); assay: Inhibition of BTK auto-phosphorylation at Y223 in human U2932 cells measured after 4 hrs by chemiluminescent assay
[19] = target: cAMP-dependent protein kinase catalytic subunit alpha (Homo sapiens) (UniProt P17612); assay: Inhibition of wild-type human partial length PKAC-alpha (G10 to F351 residues) expressed in bacterial expression system assessed as residual activity at 1 uM by Kinomescan method relative to control
[20] = target: 5'-AMP-activated protein kinase catalytic subunit alpha-2 (Homo sapiens) (UniProt P54646); assay: Inhibition of wild-type human partial length AMPK alpha2 (M1 to E306 residues) expressed in bacterial expression system assessed as residual activity at 1 uM by Kinomescan method relative to control
NB-4 = assay: Growth inhibition of human NB4 cells; assay type: functional; settings: Homo sapiens, NB-4
[21] = target: Serine/threonine-protein kinase TAO3 (Homo sapiens) (UniProt Q9H2K8); assay: Inhibition of wild-type human partial length TAOK3 (M1 to T316 residues) expressed in mammalian expression system assessed as residual activity at 1 uM by Kinomescan method relative to control
[22] = target: TGF-beta receptor type-1 (Homo sapiens) (UniProt P36897); assay: Inhibition of wild-type human partial length TGFBR1 (D179 to M503 residues) expressed in bacterial expression system assessed as residual activity at 1 uM by Kinomescan method relative to control
[23] = target: Serine/threonine-protein kinase PRP4 homolog (Homo sapiens) (UniProt Q13523); assay: Inhibition of wild-type human partial length PRP4 (D657 to I1007 residues) expressed in bacterial expression system assessed as residual activity at 1 uM by Kinomescan method relative to control
[24] = system: Epidermal growth factor receptor (Homo sapiens), P00533 [T790M]; assay: Inhibition of human partial length EGFR T790M mutant (R669 to G1022 residues) expressed in mammalian expression system assessed as residual activity at 1 uM by Kinomescan method relative to control
[25] = system: Tyrosine-protein kinase ABL1 (Homo sapiens), P00519 [F317I]; assay: Inhibition of human phosphorylated ABL1 F317I mutant (S229 to K512 residues) expressed in mammalian expression system assessed as residual activity at 1 uM by Kinomescan method relative to control

Receptor-interacting serine/threonine-protein kinase 4 (Homo sapiens), sequence (P57078 whole entry, the tested form may be a part): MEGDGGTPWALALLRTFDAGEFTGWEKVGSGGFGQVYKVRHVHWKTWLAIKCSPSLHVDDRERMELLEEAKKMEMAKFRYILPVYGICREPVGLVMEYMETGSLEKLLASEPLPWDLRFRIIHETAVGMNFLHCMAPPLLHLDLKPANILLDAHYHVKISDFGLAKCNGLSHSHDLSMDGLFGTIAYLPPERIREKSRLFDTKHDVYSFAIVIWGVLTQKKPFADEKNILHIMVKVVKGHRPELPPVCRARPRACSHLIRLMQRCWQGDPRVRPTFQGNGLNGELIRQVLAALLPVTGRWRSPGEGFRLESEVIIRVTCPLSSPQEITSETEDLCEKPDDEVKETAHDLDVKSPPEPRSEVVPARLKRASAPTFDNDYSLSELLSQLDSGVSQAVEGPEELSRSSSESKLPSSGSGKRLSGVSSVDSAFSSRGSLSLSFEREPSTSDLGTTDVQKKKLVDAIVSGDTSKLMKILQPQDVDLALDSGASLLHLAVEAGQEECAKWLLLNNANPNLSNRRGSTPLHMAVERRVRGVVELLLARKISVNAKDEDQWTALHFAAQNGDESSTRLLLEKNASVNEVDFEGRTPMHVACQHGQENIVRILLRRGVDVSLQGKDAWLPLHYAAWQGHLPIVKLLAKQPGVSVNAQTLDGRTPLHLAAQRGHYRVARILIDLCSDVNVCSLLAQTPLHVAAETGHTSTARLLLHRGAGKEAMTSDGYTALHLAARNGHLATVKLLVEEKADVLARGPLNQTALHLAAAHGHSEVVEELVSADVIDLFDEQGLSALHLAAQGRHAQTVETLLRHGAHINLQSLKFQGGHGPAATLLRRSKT
TRAF2 and NCK-interacting protein kinase (Homo sapiens), sequence (Q9UKE5 whole entry, looked up, the tested form may be a part): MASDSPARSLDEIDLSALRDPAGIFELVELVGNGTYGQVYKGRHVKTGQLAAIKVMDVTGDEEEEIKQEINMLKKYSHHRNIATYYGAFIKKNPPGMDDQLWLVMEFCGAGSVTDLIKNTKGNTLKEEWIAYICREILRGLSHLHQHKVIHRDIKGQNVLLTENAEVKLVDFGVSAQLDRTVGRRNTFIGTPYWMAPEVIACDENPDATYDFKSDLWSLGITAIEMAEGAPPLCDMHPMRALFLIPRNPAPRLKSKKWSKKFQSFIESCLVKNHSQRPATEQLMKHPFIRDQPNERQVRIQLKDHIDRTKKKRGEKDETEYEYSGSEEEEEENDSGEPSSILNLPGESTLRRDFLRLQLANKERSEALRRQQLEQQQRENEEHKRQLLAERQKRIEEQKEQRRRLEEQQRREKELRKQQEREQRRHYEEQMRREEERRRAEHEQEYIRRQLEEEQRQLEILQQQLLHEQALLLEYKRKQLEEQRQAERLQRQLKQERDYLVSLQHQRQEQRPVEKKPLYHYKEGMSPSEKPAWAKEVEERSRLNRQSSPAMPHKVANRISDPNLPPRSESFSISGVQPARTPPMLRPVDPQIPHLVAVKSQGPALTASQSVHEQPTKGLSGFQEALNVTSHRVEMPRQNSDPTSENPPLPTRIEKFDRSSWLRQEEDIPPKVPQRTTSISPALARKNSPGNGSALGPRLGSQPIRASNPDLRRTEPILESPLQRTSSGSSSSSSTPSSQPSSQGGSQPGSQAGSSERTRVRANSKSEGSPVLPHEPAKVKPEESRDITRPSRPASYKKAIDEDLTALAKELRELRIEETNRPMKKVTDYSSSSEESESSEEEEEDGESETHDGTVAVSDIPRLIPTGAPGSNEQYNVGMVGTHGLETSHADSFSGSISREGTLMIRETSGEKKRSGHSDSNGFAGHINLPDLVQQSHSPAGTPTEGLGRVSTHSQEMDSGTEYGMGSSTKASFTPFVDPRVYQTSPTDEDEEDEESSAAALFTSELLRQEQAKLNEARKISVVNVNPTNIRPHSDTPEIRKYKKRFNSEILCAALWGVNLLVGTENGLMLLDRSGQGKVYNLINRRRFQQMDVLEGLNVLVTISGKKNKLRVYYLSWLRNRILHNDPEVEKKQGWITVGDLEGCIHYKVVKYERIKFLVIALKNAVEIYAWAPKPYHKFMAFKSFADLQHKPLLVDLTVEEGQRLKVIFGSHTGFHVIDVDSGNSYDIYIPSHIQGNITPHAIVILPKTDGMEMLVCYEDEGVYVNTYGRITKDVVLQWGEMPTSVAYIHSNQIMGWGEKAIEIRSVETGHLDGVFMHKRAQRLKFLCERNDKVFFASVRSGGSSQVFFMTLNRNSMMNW
Cyclin-dependent kinase 3 (Homo sapiens), sequence (Q00526 whole entry, looked up, the tested form may be a part): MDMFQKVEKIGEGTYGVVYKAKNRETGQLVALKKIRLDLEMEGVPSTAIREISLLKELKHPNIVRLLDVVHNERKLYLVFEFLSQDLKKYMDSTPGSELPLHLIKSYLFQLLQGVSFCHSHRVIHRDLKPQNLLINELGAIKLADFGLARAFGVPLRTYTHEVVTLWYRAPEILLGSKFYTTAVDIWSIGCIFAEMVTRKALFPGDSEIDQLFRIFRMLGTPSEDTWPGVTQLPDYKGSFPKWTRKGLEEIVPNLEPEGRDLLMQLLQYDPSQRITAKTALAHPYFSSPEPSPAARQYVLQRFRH
Serine/threonine-protein kinase TAO2 (Homo sapiens), sequence (Q9UL54 whole entry, the tested form may be a part): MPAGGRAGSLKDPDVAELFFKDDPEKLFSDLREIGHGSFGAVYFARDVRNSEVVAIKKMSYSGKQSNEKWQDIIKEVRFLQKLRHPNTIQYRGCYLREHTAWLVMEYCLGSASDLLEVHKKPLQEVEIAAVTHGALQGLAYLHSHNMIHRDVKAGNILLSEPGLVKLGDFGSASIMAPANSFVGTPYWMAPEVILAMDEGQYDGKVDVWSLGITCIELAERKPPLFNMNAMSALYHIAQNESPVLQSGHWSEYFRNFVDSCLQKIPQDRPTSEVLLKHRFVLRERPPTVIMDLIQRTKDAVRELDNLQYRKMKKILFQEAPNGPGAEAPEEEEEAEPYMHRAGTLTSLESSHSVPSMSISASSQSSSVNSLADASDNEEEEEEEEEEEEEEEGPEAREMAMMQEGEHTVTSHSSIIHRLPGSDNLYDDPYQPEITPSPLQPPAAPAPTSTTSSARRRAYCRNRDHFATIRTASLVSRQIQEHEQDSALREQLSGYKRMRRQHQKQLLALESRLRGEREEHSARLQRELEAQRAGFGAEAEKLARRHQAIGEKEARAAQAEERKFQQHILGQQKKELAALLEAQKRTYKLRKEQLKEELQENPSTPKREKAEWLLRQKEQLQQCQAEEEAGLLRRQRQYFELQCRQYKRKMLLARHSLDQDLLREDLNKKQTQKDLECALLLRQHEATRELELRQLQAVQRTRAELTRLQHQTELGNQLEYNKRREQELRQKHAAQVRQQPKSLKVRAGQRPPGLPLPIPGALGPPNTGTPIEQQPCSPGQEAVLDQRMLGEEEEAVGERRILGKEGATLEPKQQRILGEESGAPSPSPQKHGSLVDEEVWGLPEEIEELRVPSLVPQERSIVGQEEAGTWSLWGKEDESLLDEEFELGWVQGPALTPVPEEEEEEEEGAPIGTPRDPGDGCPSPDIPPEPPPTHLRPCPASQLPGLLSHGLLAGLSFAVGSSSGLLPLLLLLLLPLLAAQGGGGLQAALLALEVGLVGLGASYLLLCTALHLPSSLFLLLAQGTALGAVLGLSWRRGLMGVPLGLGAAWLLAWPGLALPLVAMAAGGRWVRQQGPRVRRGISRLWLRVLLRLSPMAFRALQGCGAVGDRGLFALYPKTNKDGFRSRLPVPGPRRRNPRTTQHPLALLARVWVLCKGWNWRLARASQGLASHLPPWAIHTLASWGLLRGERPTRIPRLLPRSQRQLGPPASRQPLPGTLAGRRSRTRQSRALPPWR
Serine/threonine-protein kinase PRP4 homolog (Homo sapiens), sequence (Q13523 whole entry, the tested form may be a part): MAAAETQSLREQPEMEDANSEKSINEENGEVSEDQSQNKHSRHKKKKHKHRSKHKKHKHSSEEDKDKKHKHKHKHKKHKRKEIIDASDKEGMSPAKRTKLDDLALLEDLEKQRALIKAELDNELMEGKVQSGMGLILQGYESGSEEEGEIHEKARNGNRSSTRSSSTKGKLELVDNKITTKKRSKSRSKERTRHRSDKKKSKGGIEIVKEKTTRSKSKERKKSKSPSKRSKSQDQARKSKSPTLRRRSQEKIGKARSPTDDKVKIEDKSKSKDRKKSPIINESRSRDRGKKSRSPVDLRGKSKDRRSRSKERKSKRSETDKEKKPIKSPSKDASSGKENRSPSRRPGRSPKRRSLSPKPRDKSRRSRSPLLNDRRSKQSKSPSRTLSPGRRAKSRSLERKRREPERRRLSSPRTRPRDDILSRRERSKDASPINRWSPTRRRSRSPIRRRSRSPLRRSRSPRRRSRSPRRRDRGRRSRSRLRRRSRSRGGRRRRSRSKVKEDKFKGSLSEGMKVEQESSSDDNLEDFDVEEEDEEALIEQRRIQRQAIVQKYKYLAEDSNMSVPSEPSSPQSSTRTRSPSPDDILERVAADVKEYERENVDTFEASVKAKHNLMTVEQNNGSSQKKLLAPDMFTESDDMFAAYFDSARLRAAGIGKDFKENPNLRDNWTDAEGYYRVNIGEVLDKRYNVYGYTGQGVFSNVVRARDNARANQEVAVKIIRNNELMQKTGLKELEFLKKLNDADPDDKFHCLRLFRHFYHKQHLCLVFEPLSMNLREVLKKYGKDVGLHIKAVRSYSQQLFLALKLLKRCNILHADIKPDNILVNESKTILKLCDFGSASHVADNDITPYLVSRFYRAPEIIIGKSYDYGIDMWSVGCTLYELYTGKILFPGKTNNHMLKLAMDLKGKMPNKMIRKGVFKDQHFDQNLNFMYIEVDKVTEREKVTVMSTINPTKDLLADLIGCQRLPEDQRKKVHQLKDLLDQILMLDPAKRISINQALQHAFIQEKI
Cyclin-dependent kinase 5 (Homo sapiens), sequence (Q00535 whole entry, looked up, the tested form may be a part): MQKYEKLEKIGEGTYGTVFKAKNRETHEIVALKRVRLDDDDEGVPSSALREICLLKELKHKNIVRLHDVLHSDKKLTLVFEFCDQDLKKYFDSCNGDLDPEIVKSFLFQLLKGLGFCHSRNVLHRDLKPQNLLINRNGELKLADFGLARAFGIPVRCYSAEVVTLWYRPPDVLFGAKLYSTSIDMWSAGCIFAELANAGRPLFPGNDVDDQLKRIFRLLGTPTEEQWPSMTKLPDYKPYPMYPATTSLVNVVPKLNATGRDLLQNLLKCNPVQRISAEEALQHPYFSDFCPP

C=CC(=O)Nc1cc(Nc2cc(-c3cccc(NC(=O)c4ccc(C(C)(C)C)cc4)c3C)cn(C)c2=O)ccc1C(=O)N1CCOCC1
Activity [1]: 89% | Activity [2]: 90% | Activity [3]: 100% | Activity [4]: 87% | Activity [5]: 92% | Activity [6]: 97% | Activity [7]: 100% | Activity [8]: 97% | Activity [9]: 100% | Activity [10]: 100% | Activity [11]: 94% | Activity [12]: 100% | Activity [13]: 99% | Tmax [14]: 1.02 min | Activity [15]: 96% | Activity [16]: 95% | Activity [17]: 84% | EC50 [18]: < 0.03 µM | Activity [19]: 95% | Activity [20]: 92% | GI50 (NB-4): 6.6 µM | Activity [21]: 94% | Activity [22]: 93% | Activity [23]: 100% | Activity [24]: 100% | Activity [25]: 97%
